The structures appear in SMILES notation. A value given as a limit tells only on which side of the number the result lay.

As a reminder, the IC50 is the concentration that gives 50% inhibition.

This assay concerns the target hENPP2 (Homo sapiens, UniProt Q13822). The experiment in a line: Human ENPP2 (hENPP2) biochemical assay using LPC as substrate. The note with it: 150 µM LPC (palmitoyl 16:0), 37°C for 30 min. The method, boiled down:
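Enzyme at 1 or 3 µg/mL final in Tris-HCl pH 8.5, NaCl, KCl, CaCl2, fatty-acid-free BSA; reaction started with 150 µM LPC 16:0 (as added), 30 min at 37°C. Released choline developed with choline oxidase/peroxidase/TOOS/4-aminoantipyrine plus EGTA stop, read at 555 nm after 30 min; 1/3 dilutions from 50 µM give IC50.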
Take `Cc1cc(C)cc(Nc2ncc3c(n2)CN(C2CCN(C(=O)c4ccc5[nH]c(=O)oc5c4)C(C)C2)C3)c1` (centres unmarked) [compound 35, 6-[4-[2-(3,5-dimethylanilino)-5,7-dihydropyrrolo[3,4-d]pyrimidin-6-yl]-2-methyl-piperidine-1-carbonyl]-3H-1,3-benzoxazol-2-one]: the IC50 fell in the range of 0.01 to 100 nM.

Take `Cc1cc(C)cc(Nc2ncc3c(n2)CN(C2CCN(C(=O)c4ccc5[nH]nnc5c4)CC2(F)F)C3)c1` (centres unmarked) [compound 37, 1H-benzotriazol-5-yl-[4-[2-(3,5-dimethylanilino)-5,7-dihydropyrrolo[3,4-d]pyrimidin-6-yl]-3,3-difluoro-1-piperidyl]methanone]: the IC50 fell in the range of 0.01 to 100 nM. `Cc1cc(C)cc(Nc2ncc3c(n2)CN(C2CN(C(=O)c4ccc(S(N)(=O)=O)cc4)C2)C3)c1` [compound 38, 4-[3-[2-(3,5-dimethylanilino)-5,7-dihydropyrrolo[3,4-d]pyrimidin-6-yl]azetidine-1-carbonyl]benzenesulfonamide]: the IC50 lay within 100 to 500 nM. In turn, `Cc1cc(C)cc(Nc2ncc3c(n2)CN(C2CCCN(C(=O)c4ccc5[nH]c(=O)oc5c4)C2)C3)c1` (centres unmarked) [compound 39, 6-[3-[2-(3,5-dimethylanilino)-5,7-dihydropyrrolo[3,4-d]pyrimidin-6-yl]piperidine-1-carbonyl]-3H-1,3-benzoxazol-2-one] yielded an IC50 greater than 1000 nM. With `Cc1cc(C)cc(Nc2ncc3c(n2)CN(C2CCN(C(=O)c4ccc5[nH]nnc5c4)CC2F)C3)c1` (centres unmarked) [compound 40, 1H-benzotriazol-5-yl-[4-[2-(3,5-dimethylanilino)-5,7-dihydropyrrolo[3,4-d]pyrimidin-6-yl]-3-fluoro-1-piperidyl]methanone], the IC50 was 0.01 to 100 nM.

`Cc1cc(C)cc(Nc2ncc3c(n2)CN(C2CC4(C2)CN(C(=O)c2ccc5[nH]nnc5c2)C4)C3)c1` [compound 41, 1H-benzotriazol-5-yl-[6-[2-(3,5-dimethylanilino)-5,7-dihydropyrrolo[3,4-d]pyrimidin-6-yl]-2-azaspiro[3.3]heptan-2-yl]methanone] displayed an IC50 of 500 to 1000 nM. In the case of `COc1cc(Nc2ncc3c(n2)CN(C2CCN(C(=O)c4ccc5[nH]nnc5c4)C2)C3)cc(OC)c1` (centres unmarked) [compound 42, 1H-benzotriazol-5-yl-[3-[2-(3,5-dimethoxyanilino)-5,7-dihydropyrrolo[3,4-d]pyrimidin-6-yl]pyrrolidin-1-yl]methanone], the IC50 fell in the range of 100 to 500 nM. In the case of `Cc1cncc(Nc2ncc3c(n2)CN(C2CN(C(=O)c4ccc5[nH]nnc5c4)C2)C3)c1` [compound 43, 1H-benzotriazol-5-yl-[3-[2-[(5-methyl-3-pyridyl)amino]-5,7-dihydropyrrolo[3,4-d]pyrimidin-6-yl]azetidin-1-yl]methanone] it was 500 to 1000 nM. The same measure for `Cc1cncc(Nc2ncc3c(n2)CN(C2CCN(C(=O)c4ccc5[nH]nnc5c4)C2)C3)c1` (centres unmarked) [compound 44, 1H-benzotriazol-5-yl-[3-[2-[(5-methyl-3-pyridyl)amino]-5,7-dihydropyrrolo[3,4-d]pyrimidin-6-yl]pyrrolidin-1-yl]methanone]: greater than 1000 nM; for `Cc1cncc(Nc2ncc3c(n2)CN(C2CCN(C(=O)c4ccc(S(N)(=O)=O)cc4)C2)C3)c1` (centres unmarked) [compound 45, 4-[3-[2-[(5-methyl-3-pyridyl)amino]-5,7-dihydropyrrolo[3,4-d]pyrimidin-6-yl]pyrrolidine-1-carbonyl]benzenesulfonamide]: greater than 1000 nM. The molecule `Cn1nc(C(C)(C)C)cc1Nc1ncc2c(n1)CN(C1CN(C(=O)c3ccc4[nH]nnc4c3)C1)C2` [compound 46, 1H-benzotriazol-5-yl-[3-[2-[(5-tert-butyl-2-methyl-pyrazol-3-yl)amino]-5,7-dihydropyrrolo[3,4-d]pyrimidin-6-yl]azetidin-1-yl]methanone] came in with an IC50 greater than 1000 nM. `Cc1cncc(Nc2ncc3c(n2)CN(C2CCN(C(=O)c4ccc(S(N)(=O)=O)cc4)CC2)C3)c1` [compound 47, 4-[4-[2-[(5-methyl-3-pyridyl)amino]-5,7-dihydropyrrolo[3,4-d]pyrimidin-6-yl]piperidine-1-carbonyl]benzenesulfonamide]: the half-maximal inhibitory concentration (IC50) was greater than 1000 nM. The molecule `Cc1cncc(Nc2ncc3c(n2)CN(C2CN(C(=O)c4ccc(S(N)(=O)=O)cc4)C2)C3)c1` [compound 48, 4-[3-[2-[(5-methyl-3-pyridyl)amino]-5,7-dihydropyrrolo[3,4-d]pyrimidin-6-yl]azetidine-1-carbonyl]benzenesulfonamide] returned an IC50 greater than 1000 nM. As for `Cc1cncc(Nc2ncc3c(n2)CN(C2CCN(C(=O)c4ccc5[nH]nnc5c4)CC2)C3)c1` [compound 49, 1H-benzotriazol-5-yl-[4-[2-[(5-methyl-3-pyridyl)amino]-5,7-dihydropyrrolo[3,4-d]pyrimidin-6-yl]-1-piperidyl]methanone], the IC50 lay within 500 to 1000 nM. For the molecule `Cn1nc(C(C)(C)C)cc1Nc1ncc2c(n1)CN(C1CCN(C(=O)c3ccc4[nH]nnc4c3)CC1)C2` [compound 50, 1H-benzotriazol-5-yl-[4-[2-[(5-tert-butyl-2-methyl-pyrazol-3-yl)amino]-5,7-dihydropyrrolo[3,4-d]pyrimidin-6-yl]-1-piperidyl]methanone], the IC50 was greater than 1000 nM. Molecule `Cc1cc(C)nc(Nc2ncc3c(n2)CN(C2CN(C(=O)c4ccc5[nH]nnc5c4)C2)C3)c1` [compound 51, 1H-benzotriazol-5-yl-[3-[2-[(4,6-dimethyl-2-pyridyl)amino]-5,7-dihydropyrrolo[3,4-d]pyrimidin-6-yl]azetidin-1-yl]methanone] yielded an IC50 of 500 to 1000 nM.

In the case of `Cc1cc(C)nc(Nc2ncc3c(n2)CN(C2CN(C(=O)c4ccc5[nH]c(=O)oc5c4)C2)C3)c1` [compound 52, 6-[3-[2-[(4,6-dimethyl-2-pyridyl)amino]-5,7-dihydropyrrolo[3,4-d]pyrimidin-6-yl]azetidine-1-carbonyl]-3H-1,3-benzoxazol-2-one], the IC50 lay in the range of 100 to 500 nM. For the molecule `O=C(c1ccc2[nH]nnc2c1)N1CC(N2Cc3cnc(Nc4cc(F)cc(F)c4)nc3C2)C1` [compound 53, 1H-benzotriazol-5-yl-[3-[2-(3,5-difluoroanilino)-5,7-dihydropyrrolo[3,4-d]pyrimidin-6-yl]azetidin-1-yl]methanone], the IC50 lay within 100 to 500 nM.

Regarding `O=C(c1ccc2[nH]nnc2c1)N1CCC(N2Cc3cnc(Nc4cc(F)cc(F)c4)nc3C2)CC1` [compound 54, 1H-benzotriazol-5-yl-[4-[2-(3,5-difluoroanilino)-5,7-dihydropyrrolo[3,4-d]pyrimidin-6-yl]-1-piperidyl]methanone], the IC50 is 100 to 500 nM.

As to `O=C(c1ccc2[nH]c(=O)oc2c1)N1CCC(N2Cc3cnc(Nc4cc(F)cc(F)c4)nc3C2)CC1` [compound 55, 6-[4-[2-(3,5-difluoroanilino)-5,7-dihydropyrrolo[3,4-d]pyrimidin-6-yl]piperidine-1-carbonyl]-3H-1,3-benzoxazol-2-one], the IC50 lay in the range of 100 to 500 nM.

As to `Cc1cc(C)nc(Nc2ncc3c(n2)CN(C2CCN(C(=O)c4ccc5nn[nH]c5c4)CC2)C3)c1` [compound 56, 3H-benzotriazol-5-yl-[4-[2-[(4,6-dimethyl-2-pyridyl)amino]-5,7-dihydropyrrolo [3,4-d]pyrimidin-6-yl]-1-piperidyl]methanone], the IC50 is greater than 1000 nM. The same measure for `O=C(c1ccc2[nH]c(=O)oc2c1)N1CC(N2Cc3cnc(Nc4cc(F)cc(F)c4)nc3C2)C1` [compound 57, 6-[3-[2-(3,5-difluoroanilino)-5,7-dihydropyrrolo[3,4-d]pyrimidin-6-yl]azetidine-1-carbonyl]-3H-1,3-benzoxazol-2-one]: 0.01 to 100 nM; for `N#Cc1ccc(Nc2ncc3c(n2)CN(C2CN(C(=O)c4ccc5[nH]nnc5c4)C2)C3)cc1` [compound 58, 4-[[6-[1-(1H-benzotriazole-5-carbonyl)azetidin-3-yl]-5,7-dihydropyrrolo[3,4-d]pyrimidin-2-yl]amino]benzonitrile]: 0.01 to 100 nM. Molecule `N#Cc1ccc(Nc2ncc3c(n2)CN(C2CCN(C(=O)c4ccc5[nH]nnc5c4)CC2)C3)cc1` [compound 59, 4-[[6-[1-(1H-benzotriazole-5-carbonyl)-4-piperidyl]-5,7-dihydropyrrolo[3,4-d]pyrimidin-2-yl]amino]benzonitrile] had an IC50 of 0.01 to 100 nM. `Cc1cc(C)cc(Nc2ncc3c(n2)CN(C2CCN(C(=O)c4ccc5[nH]c(=S)oc5c4)CC2)C3)c1` [compound 61, [4-[2-(3,5-dimethylanilino)-5,7-dihydropyrrolo[3,4-d]pyrimidin-6-yl]-1-piperidyl]-(2-thioxo-3H-1,3-benzoxazol-6-yl)methanone] displayed an IC50 of 0.01 to 100 nM. Turning to `Cc1cc(C)cc(Nc2ncc3c(n2)CN(C2CN(C(=O)c4ccc5[nH]c(=S)oc5c4)C2)C3)c1` [compound 62, [3-[2-(3,5-dimethylanilino)-5,7-dihydropyrrolo[3,4-d]pyrimidin-6-yl]azetidin-1-yl]-(2-thioxo-3H-1,3-benzoxazol-6-yl)methanone], the IC50 was 0.01 to 100 nM. In the case of `Cc1cc(C)cc(Nc2ncc3c(n2)CN(C2CC4CC2CN4C(=O)c2ccc4[nH]nnc4c2)C3)c1` (centres unmarked) [compound 63, 1H-benzotriazol-5-yl-[5-[2-(3,5-dimethylanilino)-5,7-dihydropyrrolo[3,4-d]pyrimidin-6-yl]-2-azabicyclo[2.2.1]heptan-2-yl]methanone] it was greater than 1000 nM. The same measure for `Cc1cc(C)cc(Nc2ncc3c(n2)CN(C2CC4CC2CN4C(=O)c2ccc4[nH]c(=O)oc4c2)C3)c1` (centres unmarked) [compound 64, 6-[5-[2-(3,5-dimethylanilino)-5,7-dihydropyrrolo[3,4-d]pyrimidin-6-yl]-2-azabicyclo[2.2.1]heptane-2-carbonyl]-3H-1,3-benzoxazol-2-one]: greater than 1000 nM; for `Cc1cc(C)cc(Nc2ncc3c(n2)CN(C2CCN(C(=O)c4cnc5[nH]nnc5c4)CC2C)C3)c1` (centres unmarked) [compound 65, [4-[2-(3,5-dimethylanilino)-5,7-dihydropyrrolo[3,4-d]pyrimidin-6-yl]-3-methyl-1-piperidyl]-(3H-triazolo[4,5-b]pyridin-6-yl)methanone]: 100 to 500 nM.
